Source: the supplement of paper PMC10883282

How the values were obtained:
Assay in all cases: relative viability vs DMSO control (72 h) (fraction); higher = more viable cells
SW872 = system: SW872
Procedure, shortened: (§1)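 Plates held 72 h at 37 °C and 5% CO2 contained sarcoma cell lines seeded in 384-well format to reach 80–90% confluence, plus 2.5 µl of serially diluted compound added after 24 h. Source plate concentrations ran from 10 mM to 0.0002 mM, with 0.1% DMSO as vehicle and a 5 µM positive control. Percent growth from ATPLite readings, averaged over up to triplicate wells, gave relative viability. Values were rescaled with 1 as full and 0 as none.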

A204 = system: A204
Procedure, shortened: as §1

SYO-1 = system: SYO-1
Procedure, shortened: as §1

SK-ES-1 = system: SK-ES-1
Procedure, shortened: as §1

SW982 = system: SW982
Procedure, shortened: as §1

HS729 = system: HS729
Procedure, shortened: as §1

KHOS-240S = system: KHOS-240S
Procedure, shortened: as §1

SW1353 = system: SW1353
Procedure, shortened: as §1

G401 = system: G401
Procedure, shortened: as §1

SW684 = system: SW684
Procedure, shortened: as §1

MES-SA = system: MES-SA
Procedure, shortened: as §1

SK-LMS-1 = system: SK-LMS-1
Procedure, shortened: as §1

CO[C@H]1C[C@@H]2CC[C@@H](C)[C@@](O)(O2)C(=O)C(=O)N2CCCC[C@H]2C(=O)O[C@H]([C@H](C)C[C@@H]2CC[C@@H](OC(=O)C(C)(CO)CO)[C@H](OC)C2)CC(=O)[C@H](C)/C=C(\C)[C@@H](O)[C@@H](OC)C(=O)[C@H](C)C[C@H](C)/C=C/C=C/C=C/1C [Temsirolimus]
Conditions | relative viability
A204, 0.00017 µM | 0.925
A204, 0.00051 µM | 0.762
A204, 0.00152 µM | 0.622
A204, 0.00457 µM | 0.551
A204, 0.01372 µM | 0.534
A204, 0.04115 µM | 0.504
A204, 0.1235 µM | 0.476
A204, 0.3704 µM | 0.453
A204, 1.111 µM | 0.431
A204, 3.333 µM | 0.392
A204, 10 µM | 0.334
G401, 0.00017 µM | 0.945
G401, 0.00051 µM | 0.917
G401, 0.00152 µM | 0.869
G401, 0.00457 µM | 0.82
G401, 0.01372 µM | 0.766
G401, 0.04115 µM | 0.706
G401, 0.1235 µM | 0.665
G401, 0.3704 µM | 0.637
G401, 1.111 µM | 0.621
G401, 3.333 µM | 0.586
G401, 10 µM | 0.396
HS729, 0.00017 µM | 0.909
HS729, 0.00051 µM | 0.926
HS729, 0.00152 µM | 0.907
HS729, 0.00457 µM | 0.931
HS729, 0.01372 µM | 0.903
HS729, 0.04115 µM | 0.854
HS729, 0.1235 µM | 0.811
HS729, 0.3704 µM | 0.758
HS729, 1.111 µM | 0.753
HS729, 3.333 µM | 0.739
HS729, 10 µM | 0.388
KHOS-240S, 0.00017 µM | 1.01
KHOS-240S, 0.00051 µM | 0.954
KHOS-240S, 0.00152 µM | 0.886
KHOS-240S, 0.00457 µM | 0.833
KHOS-240S, 0.01372 µM | 0.807
KHOS-240S, 0.04115 µM | 0.802
KHOS-240S, 0.1235 µM | 0.763
KHOS-240S, 0.3704 µM | 0.748
KHOS-240S, 1.111 µM | 0.662
KHOS-240S, 3.333 µM | 0.581
KHOS-240S, 10 µM | 0.222
MES-SA, 0.00017 µM | 0.814
MES-SA, 0.00051 µM | 0.651
MES-SA, 0.00152 µM | 0.497
MES-SA, 0.00457 µM | 0.423
MES-SA, 0.01372 µM | 0.382
MES-SA, 0.04115 µM | 0.3571
MES-SA, 0.1235 µM | 0.353
MES-SA, 0.3704 µM | 0.3494
MES-SA, 1.111 µM | 0.343
MES-SA, 3.333 µM | 0.314
MES-SA, 10 µM | 0.223
SK-ES-1, 0.00017 µM | 0.959
SK-ES-1, 0.00051 µM | 0.904
SK-ES-1, 0.00152 µM | 0.8013
SK-ES-1, 0.00457 µM | 0.707
SK-ES-1, 0.01372 µM | 0.64
SK-ES-1, 0.04115 µM | 0.579
SK-ES-1, 0.1235 µM | 0.52
SK-ES-1, 0.3704 µM | 0.538
SK-ES-1, 1.111 µM | 0.519
SK-ES-1, 3.333 µM | 0.432
SK-ES-1, 10 µM | 0.126
SK-LMS-1, 0.00017 µM | 0.916
SK-LMS-1, 0.00051 µM | 0.699
SK-LMS-1, 0.00152 µM | 0.6325
SK-LMS-1, 0.00457 µM | 0.597
SK-LMS-1, 0.01372 µM | 0.537
SK-LMS-1, 0.04115 µM | 0.495
SK-LMS-1, 0.1235 µM | 0.477
SK-LMS-1, 0.3704 µM | 0.472
SK-LMS-1, 1.111 µM | 0.464
SK-LMS-1, 3.333 µM | 0.441
SK-LMS-1, 10 µM | 0.0134
SW684, 0.00017 µM | 1.06
SW684, 0.00051 µM | 1.04
SW684, 0.00152 µM | 0.956
SW684, 0.00457 µM | 0.919
SW684, 0.01372 µM | 0.799
SW684, 0.04115 µM | 0.711
SW684, 0.1235 µM | 0.752
SW684, 0.3704 µM | 0.79
SW684, 1.111 µM | 0.767
SW684, 3.333 µM | 0.767
SW684, 10 µM | -0.00523
SW872, 0.00017 µM | 0.85
SW872, 0.00051 µM | 0.805
SW872, 0.00152 µM | 0.759
SW872, 0.00457 µM | 0.682
SW872, 0.01372 µM | 0.643
SW872, 0.04115 µM | 0.594
SW872, 0.1235 µM | 0.569
SW872, 0.3704 µM | 0.553
SW872, 1.111 µM | 0.516
SW872, 3.333 µM | 0.518
SW872, 10 µM | 0.461
SW982, 0.00017 µM | 0.921
SW982, 0.00051 µM | 0.828
SW982, 0.00152 µM | 0.724
SW982, 0.00457 µM | 0.667
SW982, 0.01372 µM | 0.657
SW982, 0.04115 µM | 0.657
SW982, 0.1235 µM | 0.626
SW982, 0.3704 µM | 0.595
SW982, 1.111 µM | 0.562
SW982, 3.333 µM | 0.473
SW982, 10 µM | 0.385
SW1353, 0.00017 µM | 0.892
SW1353, 0.00051 µM | 0.859
SW1353, 0.00152 µM | 0.827
SW1353, 0.00457 µM | 0.781
SW1353, 0.01372 µM | 0.745
SW1353, 0.04115 µM | 0.72
SW1353, 0.1235 µM | 0.68
SW1353, 0.3704 µM | 0.664
SW1353, 1.111 µM | 0.63
SW1353, 3.333 µM | 0.602
SW1353, 10 µM | 0.149
SYO-1, 0.00017 µM | 0.884
SYO-1, 0.00051 µM | 0.877
SYO-1, 0.00152 µM | 0.878
SYO-1, 0.00457 µM | 0.83
SYO-1, 0.01372 µM | 0.798
SYO-1, 0.04115 µM | 0.749
SYO-1, 0.1235 µM | 0.687
SYO-1, 0.3704 µM | 0.633
SYO-1, 1.111 µM | 0.589
SYO-1, 3.333 µM | 0.544
SYO-1, 10 µM | 0.323
